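The compound was tested at five concentrations on cells cultured in 96-well plates, with a 48-hour exposure period. At the GI50, growth is halved.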 The source made the active and inactive calls. Rule as the data show it: active = GI50 up to about 1.1 µM and inactive = higher.
Legend:
Test in all cases: NCI-60 cell line screen, 48 h
OVCAR-5 = system: OVCAR-5
M14 = system: M14
HCT-15 = system: HCT-15
Malme-3M = system: Malme-3M
OVCAR-8 = system: OVCAR-8
UACC-62 = system: UACC-62
K562 = system: K562
SF-295 = system: SF-295
NCI-H522 = system: NCI-H522
HT-29 = system: HT-29
DU-145 = system: DU-145
HCC 2998 = system: HCC 2998
SK-MEL-28 = system: SK-MEL-28
SK-MEL-2 = system: SK-MEL-2
SK-MEL-5 = system: SK-MEL-5
NCI/ADR-RES = system: NCI/ADR-RES
SK-OV-3 = system: SK-OV-3
SF-268 = system: SF-268
Hs-578T = system: Hs-578T

Structure (SMILES)	GI50 (OVCAR-5)	GI50 (M14)	GI50 (HCT-15) [µM]	GI50 (Malme-3M)	GI50 (OVCAR-8)	GI50 (UACC-62)	GI50 (K562)	GI50 (SF-295)	GI50 (NCI-H522)	GI50 (HT-29)	GI50 (DU-145)	GI50 (HCC 2998)	GI50 (SK-MEL-28)	GI50 (SK-MEL-2)	GI50 (SK-MEL-5)	GI50 (NCI/ADR-RES)	GI50 (SK-OV-3)	GI50 (SF-268)	GI50 (Hs-578T)
[O-][N+]1=C(c2ccccc2)/C(=C2/C(c3ccccc3)=[N+]([O-])c3ccccc32)Cc2ccccc21	33.6 µM (inactive)	19.6 µM (inactive)	16.9	21.3 µM (inactive)	16.6 µM (inactive)	14.1 µM (inactive)	19.1 µM (inactive)	15.3 µM (inactive)	15.3 µM (inactive)	19.4 µM (inactive)	22 µM (inactive)	13.9 µM (inactive)	22.3 µM (inactive)	16.1 µM (inactive)	17.6 µM (inactive)	15.7 µM (inactive)	26.4 µM (inactive)	–	–
Cc1nc2sc3ccccc3n2c(=O)c1/N=N/c1ccc(Br)cc1	> 100 µM (inactive)	> 100 µM (inactive)	> 100	> 100 µM (inactive)	> 100 µM (inactive)	> 100 µM (inactive)	81.1 µM (inactive)	> 100 µM (inactive)	38.5 µM (inactive)	> 100 µM (inactive)	> 100 µM (inactive)	–	> 100 µM (inactive)	81.5 µM (inactive)	> 100 µM (inactive)	> 100 µM (inactive)	> 100 µM (inactive)	70.5 µM (inactive)	67.5 µM (inactive)
COC[C@@H](/N=C/c1ccc([N+](=O)[O-])cc1)C(C)C	> 100 µM (inactive)	70.1 µM (inactive)	> 100	> 100 µM (inactive)	> 100 µM (inactive)	> 100 µM (inactive)	34.1 µM (inactive)	> 100 µM (inactive)	> 100 µM (inactive)	> 100 µM (inactive)	> 100 µM (inactive)	–	> 100 µM (inactive)	> 100 µM (inactive)	> 10 µM (inactive)	> 100 µM (inactive)	> 100 µM (inactive)	> 100 µM (inactive)	> 100 µM (inactive)
O=C1NC2(CCCCC2)C2CCCCC=C12 (stereo unspecified)	> 100 µM (inactive)	> 100 µM (inactive)	> 100	> 100 µM (inactive)	> 100 µM (inactive)	> 100 µM (inactive)	> 100 µM (inactive)	> 100 µM (inactive)	> 100 µM (inactive)	> 100 µM (inactive)	–	–	> 100 µM (inactive)	> 100 µM (inactive)	> 100 µM (inactive)	–	> 100 µM (inactive)	> 100 µM (inactive)	–
COC(=O)[C@H]1NC(=O)CCSSC1(C)C	> 100 µM (inactive)	> 100 µM (inactive)	> 100	> 100 µM (inactive)	> 100 µM (inactive)	> 100 µM (inactive)	> 100 µM (inactive)	> 100 µM (inactive)	> 100 µM (inactive)	> 100 µM (inactive)	> 100 µM (inactive)	–	> 100 µM (inactive)	> 100 µM (inactive)	> 100 µM (inactive)	> 100 µM (inactive)	–	> 100 µM (inactive)	> 100 µM (inactive)
Cc1ccc(NC2=CC(=O)C(NO)c3ccccc32)cc1 (stereo unspecified)	8.59 µM (inactive)	2.94 µM (inactive)	2.79	–	1.63 µM (inactive)	1.51 µM (inactive)	–	3.98 µM (inactive)	–	4.35 µM (inactive)	2.56 µM (inactive)	7.26 µM (inactive)	8.13 µM (inactive)	2.23 µM (inactive)	1.49 µM (inactive)	2.08 µM (inactive)	10.8 µM (inactive)	3.32 µM (inactive)	–
O=C(Nc1ccccc1)c1cc2ccccc2c(/N=N/c2ccc([N+](=O)[O-])cc2)c1O	> 100 µM (inactive)	> 100 µM (inactive)	> 100	> 100 µM (inactive)	> 100 µM (inactive)	65.2 µM (inactive)	35.6 µM (inactive)	38.7 µM (inactive)	> 100 µM (inactive)	> 100 µM (inactive)	> 100 µM (inactive)	–	> 100 µM (inactive)	32.8 µM (inactive)	> 100 µM (inactive)	> 100 µM (inactive)	81.8 µM (inactive)	> 100 µM (inactive)	55.1 µM (inactive)
CC(C)c1c(O[Si](C(C)C)(C(C)C)C(C)C)cc2c(c1O)CC[C@H]1C(C)(C)CCC[C@]21C	> 100 µM (inactive)	> 100 µM (inactive)	> 100	> 100 µM (inactive)	> 100 µM (inactive)	> 100 µM (inactive)	65.6 µM (inactive)	> 100 µM (inactive)	47.2 µM (inactive)	> 100 µM (inactive)	> 100 µM (inactive)	–	> 100 µM (inactive)	> 100 µM (inactive)	> 100 µM (inactive)	> 100 µM (inactive)	> 100 µM (inactive)	> 100 µM (inactive)	> 100 µM (inactive)
